According to EP0390654B1, “Aminobenzenesulfonic acid derivative” (Mitsubishi Chemical Corporation, priority 1989, dated 1990):

What was measured:
[1] = tested on: Papillary muscle of right ventricle; experiment: Inhibition of the cardiotonic activity of isoproterenol (developed tension) in isolated papillary muscle, as index of inhibiting Ca²⁺ overload into cells; design: species or system male Hartley-strain guinea-pigs; details: Drug concentration 10⁻³ M; inhibition of developed tension increased by isoproterenol
Method: For evaluation of the extent of inhibiting Ca²⁺ overload into cells, which is the pharmacological activity of the compound of the present invention, inhibition of the cardiotonic activity of isoproterenol by the compounds of the present invention was measured.
That is to say, since isoproterenol has been known to cause Ca²⁺ overload by excessive Ca²⁺ influx into cardiac muscle cells (Fleckenstein A., Janke J., Doring H., Leder O.; Recent advances in Studies on cardiac structure and metabolism, Myocardial Biology, Vol. 4, pp. 563 - 580 (1974)), the compound which inhibits the activity of isoproterenol can inhibit Ca²⁺ overload into cells.
Papillary muscle of right ventricle isolated from male Hartley-strain guinea-pigs (body weight: 250 to 350 g) was suspended in an organ bath filled with a nutrient solution (Krebs-Henseleit solution). The temperature of the nutrient solution was maintained at 32 °C, and a gas mixture of 95 % oxygen and 5 % carbon dioxide was aerated. The papillary muscle was applied with a resting tension of about 0.5 g, and stimulated with platinum electrodes by an electric pulse wave of a duration of 1 msec, a frequency of 1 Hz and a voltage higher by 15 % than the threshold value. The developed tension of the papillary muscle was measured through a tension transducer and recorded with a polygraph. After the specimen was stabilized for about 90 minutes, isoproterenol ([…]) was added into the organ bath so that developed tension could be increased by 100 % or more, and at the point when the maximum reaction was obtained, the compounds of the present invention were added into the organ bath, and % inhibition of the developed tension increased by isoproterenol was measured.

[2] = Acute toxicity, 50 % lethal dose (LD₅₀); details: mouse, in vivo, male mice
Method: Among compounds of the present invention, the compound No. 110 was tested for its acute toxicity.
Compound No. 110 was administered to male mice (18 - 25 g) for determination of 50 % lethal dose (LD₅₀). Two routes of administration tested were as follows: • 1) intravenous (into tail vein) administration in which calculation of LD₅₀ was according to up and down method and • 2) oral administration in which calculation of LD₅₀ was according to probit method. Compound No. 110 was diluted in physiological salt solution (0.9 % sodium chloride) for intravenous administration and distilled water for oral administration.

[3] = tested on: isolated heart of rat; experiment: Protective effect on ischemic myocardium, Langendorff-perfused isolated heart (ischemia 90 minutes, then reperfusion); design: species or system Male Wister rats; details: for Developed tension (%): % of value in equilibration period, 30 minutes after reperfusion, Control 32.5; for Rise in resting tension: just before reperfusion, Control 0.72
Method: For the evaluation of the protective effect of ischemic myocardium, two parameters (rise in resting tension and decrease in developed tension), indices of myocardial injury, were measured in the myocardial ischemic model using isolated heart of rat.
It is reported that drugs which have the protective effect on ischemic myocardium attenuates the rise in resting tension and decrease in developed tension induced by Ca²⁺ overload into myocardial cells when the heart is exposed to ischemia. (Araki, H. & Lefer, AM.: Role of prostacyclin in the preservation of ischemic myocardial tissue in the perfused cat heart. Circ. Res., 47: 757-763, 1980).
Male Wister rats (250-350 g) were killed and their hearts excised. The hearts were then arranged for coronary perfusion with Krebs-Henseleit solution (37 °C, aerated with a gas mixture of 95 % O₂ - 5 % CO₂) according to the method of Langendorff. Tension development was monitored with a force displacement transducer attached via a cotton ligature to the ventricular apex with a resting tension of 1.5 g. After a equilibration period of 1 hour, myocardial ischemia was induced by lowering perfusion pressure from 80 cm H₂O to 12 cm H₂O for 90 minutes. The heart was then reperfused with the previous perfusion pressure of 80 cm H₂O. Rise in resting tension (g) just before reperfusion and developed tension (%) (% of value in equilibration period) 30 minutes after reperfusion were measured.

## Cc1ccc(N2CCNCC2)c(S(=O)(=O)O)c1 [Compound No. 12, 2-(1-piperazinyl)-5-methylbenzenesulfonic acid]
[1]
  Inhibition (%): 18.5%

## CCCc1ccc(N2CCN(Cc3ccc(OC)c(OC)c3)CC2)c(S(=O)(=O)O)c1 [Compound No. 66]
[1]
  Inhibition (%): 52.4%

## CCCc1ccc(N2CCN(Cc3ccc(OC)c(OC)c3OC)CC2)c(S(=O)(=O)O)c1 [Compound No. 69, 2-[4-(2,3,4-trimethoxybenzyl)-1-piperazinyl]-5-n-propylbenzenesulfonic acid]
[1]
  Inhibition (%): 21.4%

## CCCc1ccc(N2CCNCC2)c(S(=O)(=O)O)c1.Cl [Compound No. 110, 2-(1-piperazinyl)-5-n-propylbenzenesulfonic acid hydrochloride]
[2]; Intravenous administration (tail vein), up and down method
  LD50: 63 mg/kg
[2]; Oral administration, probit method
  LD50: 2800 mg/kg
[3]; Drug concentration 10⁻⁵ M
  Developed tension (%): 77.0%
  Rise in resting tension: 0.09 g
[3]; Drug concentration 10⁻⁶ M
  Developed tension (%): 65.4%
  Rise in resting tension: 0.33 g
[3]; Drug concentration 10⁻⁷ M
  Developed tension (%): 32.2%
  Rise in resting tension: 0.48 g

## CCCc1ccc(N2CCCN(C)CC2)c(S(=O)(=O)O)c1 [compound 89]
[3]; Drug concentration 10⁻⁵ M
  Developed tension (%): 58.4%
  Rise in resting tension: 0.25 g

## O=S(=O)(O)c1cc(-c2ccccc2)ccc1N1CCNCC1 [compound 91]
[1]
  Inhibition (%): 17.2%

## O=S(=O)(O)c1cc(Cl)ccc1N1CCNCC1 [compound 93]
[1]
  Inhibition (%): 28.0%

## O=S(=O)(O)c1cc(Br)ccc1N1CCNCC1 [compound 94]
[1]
  Inhibition (%): 18.5%

## CC(C)c1ccc(N2CCNCC2)c(S(=O)(=O)O)c1 [compound 111]
[1]
  Inhibition (%): 27.5%
